Our source for the IC50 values is ChEMBL document CHEMBL3638822, “Pyrazolopyrimidine compounds and their use as PDE10 inhibitors” (2015).

The experiment addresses T1, Phosphodiesterase (Bos taurus, UniProt F1MPW5).
T1 sequence (F1MPW5 whole entry): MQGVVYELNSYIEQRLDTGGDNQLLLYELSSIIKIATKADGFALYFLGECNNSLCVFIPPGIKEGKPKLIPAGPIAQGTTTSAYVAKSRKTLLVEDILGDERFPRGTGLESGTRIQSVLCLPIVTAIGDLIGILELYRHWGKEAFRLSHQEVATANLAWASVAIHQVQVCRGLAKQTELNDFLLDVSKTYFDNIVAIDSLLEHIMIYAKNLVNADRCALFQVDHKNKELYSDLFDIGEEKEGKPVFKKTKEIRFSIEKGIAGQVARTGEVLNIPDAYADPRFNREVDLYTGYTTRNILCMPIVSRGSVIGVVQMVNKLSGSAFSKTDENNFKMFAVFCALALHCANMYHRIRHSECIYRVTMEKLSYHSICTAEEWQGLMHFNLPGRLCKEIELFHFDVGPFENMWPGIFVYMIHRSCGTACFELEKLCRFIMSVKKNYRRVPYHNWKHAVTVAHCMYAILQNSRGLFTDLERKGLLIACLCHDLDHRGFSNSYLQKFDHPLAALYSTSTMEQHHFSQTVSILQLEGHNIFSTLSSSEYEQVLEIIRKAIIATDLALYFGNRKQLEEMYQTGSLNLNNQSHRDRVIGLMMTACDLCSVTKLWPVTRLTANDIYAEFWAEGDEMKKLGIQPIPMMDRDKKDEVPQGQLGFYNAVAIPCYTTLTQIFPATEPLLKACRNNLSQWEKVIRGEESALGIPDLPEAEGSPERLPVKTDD
Nature of the experiment: Inhibition Assay: The PDE assay was performed according to a modified method referred to a report of Kotera et al. (Kotera et al., Biochem. Pharmacol., vol. 60, pp. 1333-1341, 2000), by the radiolabeled nucleotide method.Specifically, the measurements of the inhibitory activities were carried out in the following method.(Method) The test compounds were dissolved in dimethyl sulfoxide (DMSO). 2 uL of the compound solution was added to 96 well plate, and the reaction mixture (20 uL of PDE enzyme solution in 50 mM Tris-HCl, pH 8.0, 40 uL of the assay buffer (50 mM Tris-HCl, pH 8.0, 2 mM MgCl2, 0.07% 2-mercaptoethanol, and 0.825 mg/mL bovine serum albumin), and 20 uL of 1 mg/mL snake venom in 50 mM Tris-HCl, pH8.0) was added to the 96 well plate. The enzyme reaction was started by adding and mixing with substrate solution of 20 L containing approximate 35 nM 3H-cAMP in 50 mM Tris-HCl, pH 8.0. The final concentration of cAMP in the reaction mixtures was 7 nM.
The term IC50 denotes the concentration that inhibits the measured activity by half. In the case of `Cc1nc2c(nc1-c1cc3nc(N4CCCC4)cc(NC4CCC(F)(F)CC4)n3n1)CCCC2`, the IC50 is 0.23 nM.
On to `Cc1nc2ccccc2nc1-c1cc2nc(N3CCCC3)cc(OC3CCOCC3)n2n1`, for which the IC50 was found to be 0.38 nM.
With `Cc1nc2ccccc2nc1-c1cc2nc(N3CCCC3)cc(NCCC#N)n2n1`, the IC50 turned out to be 0.052 nM.
The result for `CCc1nc2ccccc2nc1-c1cc2nc(N3CC[C@@H](F)C3)cc(N[C@H]3CC[C@H](OC)CC3)n2n1` reads 0.39 nM; that for `CC(=O)N1CCC(Nc2cc(N3CCCC3)nc3cc(-c4nc5cc(C)ccc5nc4C)nn23)CC1`, 0.044 nM; that for `Cc1nc2ccccc2nc1-c1cc2nc(N3CCCC3)cc(N(C)C3CCOCC3)n2n1`, 0.0045 nM.
`Cc1nc2ccccc2nc1-c1cc2nc(N3CC[C@@H](F)C3)cc(NC3CC3)n2n1`: the IC50 is 0.87 nM.
The result for `Cc1nc2ccccc2nc1-c1cc2nc(N3CC[C@@H](F)C3)cc(NC3COC3)n2n1` reads 0.65 nM; that for `Cc1nc2ccccc2nc1-c1cc2nc(C3=CCCC3)cc(NC3CCOCC3)n2n1`, 0.22 nM.
The result for `Cc1ccc2nc(C)c(-c3cc4nc(N5CCC[C@H]5CO)cc(N(C5CCOCC5)C5CC5)n4n3)nc2c1` reads 0.0068 nM; that for `Cc1nc2ccc(F)cc2nc1-c1cc2nc(N3CC[C@@H](F)C3)cc(N[C@H]3CC[C@](C)(O)CC3)n2n1`, 0.09 nM.
As to `Cc1ccc2nc(C)c(-c3cc4nc(N5CCCC5)cc(N[C@@H]5CCS(=O)(=O)C5)n4n3)nc2c1`, the IC50 was found to be 0.0085 nM.
The result for `Cc1ccc2nc(C)c(-c3cc4nc(N5CC(O)C5)cc(NC5CCOCC5)n4n3)nc2c1` reads 1.08 nM; that for `CO[C@H]1CC[C@H](Nc2cc(N3CCCC3)nc3cc(-c4nc5cc(C(F)(F)F)ccc5nc4C)nn23)CC1`, 0.045 nM.
Take `Cc1ccc2nc(C)c(-c3cc4nc(N5CCCC5)cc(NCCN(C)C)n4n3)nc2c1`: the IC50 stood at 0.17 nM.
With `Cc1nc2ccccc2nc1-c1cc2nc(N3CC[C@@H](F)C3)cc(NC3CCOCC3)n2n1`, the IC50 turned out to be 0.83 nM.
Turning to `Cc1nc2ccccc2nc1-c1cc2nc(N3CCC[C@H]3CO)cc(N[C@@H]3CCCOC3)n2n1`, the IC50 stood at 0.39 nM.
The result for `C[C@]1(O)CC[C@H](Nc2cc(N3CC[C@@H](F)C3)nc3cc(-c4nc5ccccc5nc4C(F)(F)F)nn23)CC1` reads 0.18 nM.
For `Cc1nc2ccccc2nc1-c1cc2nc(N3CCCC3)cc(N3CCCC3)n2n1` the value was 0.57 nM; for `Cc1ccc2nc(-c3cc4nc(N5CCCC5)cc(NC5CCOCC5)n4n3)c(C)nc2c1`, 0.46 nM.
`Cc1nc2ccc(F)cc2nc1-c1cc2nc(N3CCCC3)cc(N[C@H]3CCCC[C@@H]3O)n2n1`: the IC50 is 0.035 nM.
The result for `Cc1nc2c(C)cccc2nc1-c1cc2nc(N3CCCC3)cc(NC3CCOCC3)n2n1` reads 0.78 nM; that for `Cc1nc2ccc(F)cc2nc1-c1cc2nc(N3CC[C@@H](F)C3)cc(NCC(C)(C)O)n2n1`, 0.09 nM.
Turning to `Cc1nc2ccccc2nc1-c1cc2nc(N3CCCC3)cc(CC3CCOCC3)n2n1`, the IC50 came out at 0.36 nM.
For `Cc1nc2ccccc2nc1-c1cc2nc(N3CCCC3)cc(NC[C@H](O)C(F)(F)F)n2n1` the value was 0.13 nM.
As for `CCCN1CCC(Nc2cc(N3CCCC3)nc3cc(-c4nc5cc(C)ccc5nc4C)nn23)CC1`, the IC50 turned out to be 0.15 nM.
Turning to `Cc1nc2ccccc2nc1-c1cc2nc(N3CC[C@@H](F)C3)cc(NCC(C)(C)O)n2n1`, the IC50 was 0.32 nM.
The result for `Cc1nc2ccccc2nc1-c1cc2nc(N3CCCC3)cc(NC3CCOCC3)n2n1` reads 0.11 nM; that for `Cc1nc(C)c(-c2cc3nc(N4CCCC4)cc(N(C)C4CCOCC4)n3n2)nc1C`, 0.48 nM; that for `Cc1nc2ccccc2nc1-c1cc2nc(N3CC=CC3)cc(NC3CCOCC3)n2n1`, 0.2 nM.
